This is an account of results in patent US12704506B2, “Microbial analysis without cell purification” (First Light Diagnostics, Inc., priority 2018, dated 2026).

Read-outs that look alike come from different tables or passages of the source.

The subject of one test is E. coli. Also on record: key: previously determined antibiotic resistance (shown with “X”). The following applies: cited from earlier work.
In the next test the test system is P. aeruginosa. The arrangement: key: previously determined antibiotic resistance (shown with “X”). The note with it: cited from earlier work.
A further test deals with K. oxytoca. The arrangement: key: previously determined antibiotic resistance (shown with “X”). The note with it: cited from earlier work.
A further test relates to P. mirabilis. The arrangement: key: previously determined antibiotic resistance (shown with “X”). The note with it: cited from earlier work.
The next test concerns K. pneumoniae. The arrangement: key: previously determined antibiotic resistance (shown with “X”). The note with it: cited from earlier work.
Test [1] deals with E. coli BAA-2469. Also on record: unit not given beside the values. The note with it: E. coli BAA-2469, regardless of the amount of S. aureus ATCC 25923 cells.
The test system of test [2] is E. coli BAA-2469. Also on record: unit not given beside the values. The source says: Comparison Method: Results for the novel assay method described here were compared to broth microdilutions (BMD) performed according the […] 2018.
For test [3], the system named is K. pneumonaie strain in clinical urine sample BIUR0084. The test is described as follows: automated MultiPath AST cartridge on clinical urine, Example 8. The format is cell-based, K. pneumoniae. The note with it: for sensitive/resistant call by MulitPath: clinical urine BIUR0084, 4 h growth, fold growth value of 2; for growth call at all antibiotic concentrations (MulitPath assay): clinical urine BIUR0084, fold growth value of 2, 4 h.

As to `O=C(O)c1cn(C2CC2)c2cc(N3CCNCC3)c(F)cc2c1=O` [Ciprofloxacin], the “previously determined antibiotic resistance” value (shortened to “previously”) with E. coli (E. coli ATCC25922), in the test on E. coli (E. coli BAA-2452), in the test with E. coli (E. coli BAA-2469), with E. coli (E. coli BAA-2471), in the test on E. coli (E. coli CDC0017) and in the test on E. coli (E. coli CDC0019) was “X” in each case. Also, the “previously” value in the test with P. aeruginosa (P. aeruginosa ATCC27853), with P. aeruginosa (P. aeruginosa CDC0251), in the test on P. aeruginosa (P. aeruginosa CDC0253), in the test with P. aeruginosa (P. aeruginosa CDC0259), in the test with P. aeruginosa (P. aeruginosa CDC0261) and in the test on P. aeruginosa (P. aeruginosa CDC0262) was “X” each time. Further, the “previously” value with K. oxytoca (K. oxytoca CDC0028), in the test on K. oxytoca (K. oxytoca CDC0071), in the test on K. oxytoca (K. oxytoca CDC0147), in the test with P. mirabilis (P. mirabilis ATCC7002), in the test with P. mirabilis (P. mirabilis CDC0029) and with P. mirabilis (P. mirabilis CDC0059) was “X” each time. Also, the “previously” value in the test with P. mirabilis (P. mirabilis CDC0155), with P. mirabilis (P. mirabilis CDC0156), with P. mirabilis (P. mirabilis CDC0159), in the test on K. pneumoniae (K. pneumoniae ATCC13883), in the test on K. pneumoniae (K. pneumoniae CDC0016) and with K. pneumoniae (K. pneumoniae CDC0034) was “X” in each case. The “previously” value in the test with K. pneumoniae (K. pneumoniae CDC0076), in the test on K. pneumoniae (K. pneumoniae CDC0117) and in the test on K. pneumoniae (K. pneumoniae CDC0126) was “X” in each case.

For `O=C1CN(/N=C/c2ccc([N+](=O)[O-])o2)C(=O)N1` [Nitrofurantoin], the “MIC, novel 4-hour AST assay (MultiPath)” value against E. coli BAA-2469 [1] is given as 8. Moreover, the “MIC, CLSI-like broth microdilution” value with E. coli BAA-2469 [2] (E. coli BAA-2469, in the absence of S. aureus) was 8; against E. coli BAA-2469 [2] (E. coli BAA-2469, with a 100-fold excess of S. aureus ATCC 25923), 32.

Consider `CC(C)(O/N=C(\C(=O)N[C@@H]1C(=O)N2C(C(=O)[O-])=C(C[n+]3ccccc3)CS[C@H]12)c1csc(N)n1)C(=O)O` [Ceftazidime], for which the “previously” value in the test on E. coli (E. coli ATCC25922), in the test with E. coli (E. coli CDC0020), with E. coli (E. coli CDC0067), in the test on E. coli (E. coli CDC0084), with E. coli (E. coli CDC0086) and in the test on E. coli (E. coli CDC0350) was “X” throughout. Besides, the “previously” value in the test on P. aeruginosa (P. aeruginosa ATCC27853), with P. aeruginosa (P. aeruginosa CDC0105), in the test on P. aeruginosa (P. aeruginosa CDC0111), with P. aeruginosa (P. aeruginosa CDC0242), in the test with P. aeruginosa (P. aeruginosa CDC0251) and with P. aeruginosa (P. aeruginosa CDC0253) was “X” in each case. The “previously” value with K. oxytoca (K. oxytoca CDC0028), with K. oxytoca (K. oxytoca CDC0071), with K. oxytoca (K. oxytoca CDC0147), with P. mirabilis (P. mirabilis ATCC7002), in the test on P. mirabilis (P. mirabilis CDC0029) and in the test on P. mirabilis (P. mirabilis CDC0059) was “X” throughout. In addition, the “previously” value with P. mirabilis (P. mirabilis CDC0155), in the test on P. mirabilis (P. mirabilis CDC0156), in the test on P. mirabilis (P. mirabilis CDC0159), in the test with K. pneumoniae (K. pneumoniae ATCC13883), with K. pneumoniae (K. pneumoniae CDC0010) and in the test on K. pneumoniae (K. pneumoniae CDC0016) was “X” in each case. In addition, the “previously” value in the test with K. pneumoniae (K. pneumoniae CDC0041), in the test with K. pneumoniae (K. pneumoniae CDC0107), in the test with K. pneumoniae (K. pneumoniae CDC0126) and in the test on K. pneumoniae (K. pneumoniae CDC0160) was “X” throughout.

For `C[C@@H](O)[C@H]1C(=O)N2C(C(=O)O)=C(S[C@@H]3CN[C@H](C(=O)N(C)C)C3)[C@H](C)[C@H]12` [Meropenem], the “previously” value in the test on E. coli (E. coli ATCC25922), with E. coli (E. coli CDC0001), in the test with E. coli (E. coli CDC0006), in the test with E. coli (E. coli CDC0020), in the test with E. coli (E. coli CDC0085) and with E. coli (E. coli CDC0114) was “X” in each case. Besides, the “previously” value in the test with P. aeruginosa (P. aeruginosa CDC0105), in the test on P. aeruginosa (P. aeruginosa CDC0111), with P. aeruginosa (P. aeruginosa CDC0232), with P. aeruginosa (P. aeruginosa CDC0242), with P. aeruginosa (P. aeruginosa CDC0247) and with K. oxytoca (K. oxytoca CDC0028) was “X” throughout. Besides, the “previously” value with K. oxytoca (K. oxytoca CDC0071), in the test with K. oxytoca (K. oxytoca CDC0147), with P. mirabilis (P. mirabilis ATCC7002), in the test on P. mirabilis (P. mirabilis CDC0029), in the test on P. mirabilis (P. mirabilis CDC0059) and in the test with P. mirabilis (P. mirabilis CDC0155) was “X” in each case. Besides, the “previously” value in the test with P. mirabilis (P. mirabilis CDC0156), with P. mirabilis (P. mirabilis CDC0159), with K. pneumoniae (K. pneumoniae ATCC13883), with K. pneumoniae (K. pneumoniae CDC0010), in the test with K. pneumoniae (K. pneumoniae CDC0016) and in the test with K. pneumoniae (K. pneumoniae CDC0034) was “X” in each case. The “previously” value in the test on K. pneumoniae (K. pneumoniae CDC0043), in the test on K. pneumoniae (K. pneumoniae CDC0076) and with K. pneumoniae (K. pneumoniae CDC0080) was “X” each time.

Turning to `Cc1nnc(SCC2=C(C(=O)O)N3C(=O)[C@@H](NC(=O)Cn4cnnn4)[C@H]3SC2)s1` [Cefazolin], in test [3], the “sensitive/resistant call by MulitPath” value is reported as “resistant” and the “growth call at all antibiotic concentrations (MulitPath assay)” value is on record as “growth”.

Turning to Trimethoprim/Sulfamethoxazole, the “previously” value in the test on E. coli (E. coli ATCC25922), in the test on E. coli (E. coli BAA-2469), in the test with E. coli (E. coli BAA-2471), in the test on E. coli (E. coli CDC0017), in the test with E. coli (E. coli CDC0019) and in the test on E. coli (E. coli CDC0084) was “X” each time. In addition, the “previously” value with K. oxytoca (K. oxytoca CDC0028), with K. oxytoca (K. oxytoca CDC0071), with K. oxytoca (K. oxytoca CDC0147), in the test with P. mirabilis (P. mirabilis ATCC7002), in the test with P. mirabilis (P. mirabilis CDC0029) and with P. mirabilis (P. mirabilis CDC0059) was “X” throughout. Further, the “previously” value in the test on P. mirabilis (P. mirabilis CDC0155), in the test with P. mirabilis (P. mirabilis CDC0156), in the test with P. mirabilis (P. mirabilis CDC0159), in the test on K. pneumoniae (K. pneumoniae ATCC13883), in the test with K. pneumoniae (K. pneumoniae CDC0010) and in the test on K. pneumoniae (K. pneumoniae CDC0016) was “X” in each case. Moreover, the “previously” value in the test with K. pneumoniae (K. pneumoniae CDC0107), in the test with K. pneumoniae (K. pneumoniae CDC0117) and with K. pneumoniae (K. pneumoniae CDC0126) was “X” in each case. Moreover, the “sensitive/resistant call by MulitPath” value in test [3] is listed as “resistant”. Further, the “growth call at all antibiotic concentrations (MulitPath assay)” value in test [3] is given as “growth”.
